Structures are written as SMILES.

In the experiment the target is T1, Human MrgprX2 (Homo sapiens, UniProt Q96LB1).
T1 construct: expressed in transfected cells
T1 sequence (Q96LB1 1-330): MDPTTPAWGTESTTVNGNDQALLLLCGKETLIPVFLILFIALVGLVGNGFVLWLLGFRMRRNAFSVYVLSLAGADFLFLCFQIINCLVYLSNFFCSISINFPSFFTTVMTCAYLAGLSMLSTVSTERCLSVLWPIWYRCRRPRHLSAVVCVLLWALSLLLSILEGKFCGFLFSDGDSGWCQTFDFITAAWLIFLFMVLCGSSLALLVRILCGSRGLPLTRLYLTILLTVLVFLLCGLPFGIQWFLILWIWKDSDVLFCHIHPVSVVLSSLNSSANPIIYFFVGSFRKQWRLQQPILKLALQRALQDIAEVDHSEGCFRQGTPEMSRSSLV
Kind of experiment: Human MrgprX2 antagonist FLIPR intracellular calcium mobilization assay. Type of experiment: cell-based. The following applies: antagonist activity, recombinant hMrgpMRGPRX2 expressing cells, read-out: Human MrgprX2 Antagonist pIC50 (converted). From the text: Potent and selective hMrgpMRGPRX2 compounds have been generated from compounds identified during a high throughput screening (HTS) campaign and followed up with cycles of structure activity based medicinal chemistry efforts. These compounds were characterized in recombinant hMrgpMRGPRX2 expressing cells for their antagonist activity and the potency was confirmed in the human mast cell line LAD-2, where the target is endogenously expressed. The assays used to determine potencies are functional read-out looking at intracellular calcium mobilization using the FLIPR™ technology. In these FLIPR assays, we test the identified compounds using recombinant cellular systems expressing mouse MrgprB2, mouse MrgprA1, gerbil MrgpMRGPRX2 orthologue, Chinese hamster MrgpMRGPRX2 orthologue and cynomolgus monkey MrgpMRGPRX2 orthologue, respectively for orthologue activity.
Background: A change in cytosolic calcium serves as a functional read-out for many receptors and channels.
`CC1(C(=O)Nc2ncc(Cc3cccc(F)c3)s2)CCOCC1` [Compound E007]: the IC50 was 100 nM.
For the compound `CC(C)(F)C(=O)Nc1ncc(Cc2ccccc2F)s1` [Compound E021], the IC50 was 251 nM.
For `CCN(C[C@H](C)O)C(=O)Nc1ncc(Oc2cccc(C#N)c2)s1` [Compound E162], the IC50 was 1.58 nM.
`CCN(C[C@H](C)O)C(=O)Nc1ncc(Oc2ccc(Cl)nc2)s1` [Compound E202]: the IC50 is 200 nM.
Under `CC(O)CN(C(=O)Nc1ncc(Cc2cccc(F)c2)s1)C1CC1` (centres unmarked) [Compound E114] stands 794 nM; under `CC(C)(C)OC(=O)N1CCC[C@]1(C)C(=O)Nc1ncc(Cc2cccc(F)c2)s1` [Compound E037, tert-butyl (2R)-2-[[5-[(3-fluorophenyl)methyl]thiazol-2-yl]carbamoyl]-2-methyl-pyrrolidine-1-carboxylate], 251 nM.
Then `CC1(C(=O)Nc2ncc(Oc3cccc(F)c3)s2)CCOC1` (centres unmarked) [Compound E078, N-[5-(3-fluorophenoxy)thiazol-2-yl]-3-methyl-tetrahydrofuran-3-carboxamide], with 2.51 nM; and `C[C@H](O)CN(C)C(=O)Nc1ncc(Oc2ccc(C#N)c(F)c2)s1` [Compound E164], with 3.16 nM.
Under `CCN(C[C@H](C)O)C(=O)Nc1ncc(Oc2cncc(C)c2)s1` [Compound E178] stands 31.6 nM; under `O=C(Nc1ncc(Cc2cccc(F)c2)s1)C1(O)CC1` [Compound E026], 2510 nM.
With `CCN(C[C@H](C)O)C(=O)Nc1ncc(Oc2cccc(C(F)(F)F)c2)s1` [Compound E183], the IC50 was 3.16 nM.
Under `C[C@H](O)CN(C)C(=O)Nc1ncc(Oc2cncc(C#N)c2)s1` [Compound E172] stands 1580 nM; under `C[C@H](O)CN(C)C(=O)Nc1ncc(Oc2ccc(C(F)(F)F)cc2)s1` [Compound E160], 2510 nM.
Take `N#Cc1cc(F)cc(Oc2cnc(NC(=O)[C@H]3CCCN3S(N)(=O)=O)s2)c1` [Compound E090, (2R)—N-[5-(3-cyano-5-fluoro-phenoxy)thiazol-2-yl]-1-sulfamoyl-pyrrolidine-2-carboxamide]: the IC50 was 31.6 nM.
Regarding `O=C(Nc1ncc(Cc2cccc(F)c2)s1)N1CCC[C@@H]1CO` [Compound E121], the IC50 was 39.8 nM.
On to `CC1(C(=O)Nc2ncc(Cc3ccccc3F)s2)COC1` [Compound E016], for which the IC50 was 3980 nM.
Under `CC(C)C(=O)Nc1csc(C(=O)NCc2ccccc2)c1` [Compound E223, N-benzyl-4-(2-methylpropanoylamino)thiophene-2-carboxamide] stands 7940 nM; under `CC1(C(=O)Nc2ncc(Cc3cc(F)ccc3F)s2)COC1` [Compound E096], 50.1 nM; under `CC(C)C(=O)Nc1ncc(Oc2ccccc2F)s1` [Compound E075], 31.6 nM.
Turning to `CN1CCC[C@@H]1C(=O)Nc1ncc(Oc2ccc(C#N)cc2)s1` [Compound E087, (2R)—N-[5-(4-cyanophenoxy)thiazol-2-yl]-1-methyl-pyrrolidine-2-carboxamide], the IC50 was 2510 nM.
Under `C[C@H](O)CN(C)C(=O)Nc1ncc(CC2CCCC2)s1` [Compound E138] stands 2000 nM; under `CC(C)C(=O)Nc1ncc(Nc2ccccc2)s1` [Compound E072], 1260 nM; under `C[C@H](O)CN(C)C(=O)Nc1ncc(Oc2ccccc2F)s1` [Compound E168], 3.98 nM.
Under `C[C@@H](O)CN(C)C(=O)Nc1ncc(Cc2cc(F)cc(F)c2)s1` [Compound E133] stands 6.31 nM.
For the compound `C[C@H](O)CN(C)C(=O)Nc1ncc(Oc2cccnc2)s1` [Compound E167], the IC50 was 3160 nM.
In the case of `CC(C)C(=O)Nc1ncc(Cc2cc(F)ccc2F)s1` [Compound E093], the IC50 is 6.31 nM.
For `CC(C)C(=O)Nc1ncc(Oc2ccc(F)cc2)s1` [Compound E074], the IC50 is 10 nM.
As to `C[C@H](O)CN(C)C(=O)Nc1ncc(Oc2cccc(C#N)c2F)s1` [Compound E198], the IC50 was 398 nM.
`CC(C)(C(=O)Nc1ncc(Cc2ccc(F)cc2)s1)N1CCOCC1` [Compound E006]: the IC50 was 126 nM.
Take `CC(C)CN(C)C(=O)Nc1ncc(Cc2cccc(F)c2)s1` [Compound E125]: the IC50 is 7.94 nM.
In the case of `CCN(C[C@H](C)O)C(=O)Nc1nc2ccccc2s1` [Compound E129], the IC50 was 1000 nM.
On to `CC(=O)N1CCC(C)(C(=O)Nc2ncc(Cc3ccccc3F)s2)CC1` [Compound E059, 1-acetyl-N-[5-[(2-fluorophenyl)methyl]thiazol-2-yl]-4-methyl-piperidine-4-carboxamide], for which the IC50 was 3160 nM.
Consider `CC1(C(=O)Nc2ncc(Cc3cc(F)ccc3F)s2)CCOCC1` [Compound E092, N-[5-[(2,5-difluorophenyl)methyl]thiazol-2-yl]-4-methyl-tetrahydropyran-4-carboxamide], for which the IC50 is 100 nM.
Consider `CCN(C[C@@H](C)O)C(=O)Nc1ncc(Cc2cccc(F)c2)s1` [Compound E118], for which the IC50 is 25.1 nM.
For the compound `C[C@H](O)CN(C)C(=O)Nc1ncc(Oc2cncc(C(F)(F)F)c2)s1` [Compound E179], the IC50 was 3980 nM.
As to `CN(CCO)C(=O)Nc1ncc(Cc2cccc(F)c2)s1` [Compound E132], the IC50 was 2510 nM.
With `CCN(CCO)C(=O)Nc1ncc(Cc2cccc(F)c2)s1` [Compound E115], the IC50 is 251 nM.
In the case of `CCN(C[C@H](C)O)C(=O)Nc1ncc(Oc2cc(C#N)ccc2F)s1` [Compound E193], the IC50 was 39.8 nM.
On to `C[C@H](O)CN(C)C(=O)Nc1ncc(Cc2cccc(C#N)c2)s1` [Compound E144], for which the IC50 is 1580 nM.
As for `CCN(C[C@H](C)O)C(=O)Nc1ncc(Oc2cncc(F)c2)s1` [Compound E158], the IC50 is 1.26 nM.
Regarding `CCN(C[C@H](C)O)C(=O)Nc1ncc(Oc2ccccc2)s1` [Compound E155], the IC50 was 0.631 nM.
On to `CC(C)C(=O)Nc1ncc(Cc2cccc(F)c2F)s1` [Compound E094], for which the IC50 is 7.94 nM.
With `C[C@H](O)CN(C)C(=O)Nc1ncc(Oc2cccc(F)c2)s1` [Compound E152], the IC50 is 1.58 nM.
Then `CC(C)C(=O)Nc1ncc(Cc2ccc(F)c(F)c2)s1` [Compound E043], with 7.94 nM; and `CC(C)C(=O)Nc1ncc(N(C)c2ccccc2)s1` [Compound E073], with 1580 nM; and `CCN(C[C@H](C)O)C(=O)Nc1nc(C)c(Oc2ccc(F)cc2)s1` [Compound E208], with 7.94 nM.
On to `CCN(C[C@H](C)O)C(=O)Nc1ncc(Cc2cccc(F)c2OC)s1` [Compound E140], for which the IC50 is 501 nM.
Regarding `C[C@H](O)CN(C)C(=O)Nc1ncc(Oc2ccc(F)c(C#N)c2)s1` [Compound E165], the IC50 was 20 nM.
With `CCN(C[C@H](C)O)C(=O)Nc1ncc(Oc2cncnc2)s1` [Compound E201], the IC50 was 2510 nM.
Then `C[C@H](O)CN(C)C(=O)Nc1ncc(Cc2cc(F)ccc2F)s1` [Compound E136], with 3.98 nM; and `CC(O)(C(=O)Nc1ncc(Cc2cccc(F)c2)s1)C(F)(F)F` (centres unmarked) [Compound E025], with 200 nM.
For the compound `CN1CCC[C@@H]1C(=O)Nc1ncc(Cc2cccc(F)c2)s1` [Compound E054, (2R)—N-[5-[(3-fluorophenyl)methyl]thiazol-2-yl]-1-methyl-pyrrolidine-2-carboxamide], the IC50 is 39.8 nM.
`CC1(C(=O)Nc2ncc(Cc3ccc(F)cc3)s2)CCOCC1` [Compound E001, N-[5-[(4-fluorophenyl)methyl]thiazol-2-yl]-4-methyl-tetrahydropyran-4-carboxamide]: the IC50 was 398 nM.
Under `CC(C)(C)OC(=O)N1CCC[C@@H]1C(=O)Nc1ncc(Cc2cccc(F)c2)s1` [Compound E035, tert-butyl (2R)-2-[[5-[(3-fluorophenyl)methyl]thiazol-2-yl]carbamoyl]pyrrolidine-1-carboxylate] stands 3160 nM.
As to `C[C@]1(C(=O)Nc2ncc(Cc3cccc(F)c3)s2)CCOC1` (single isomer, unassigned) [Compound E049, N-[5-[(3-fluorophenyl)methyl]thiazol-2-yl]-3-methyl-tetrahydrofuran-3-carboxamide], the IC50 is 200 nM.
Take `CC1(C(=O)Nc2ncc(Cc3cccc(F)c3)s2)CCC(=O)N1` (centres unmarked) [Compound E032]: the IC50 is 7940 nM.
Regarding `CCN(C[C@H](C)O)C(=O)Nc1ncc(Oc2cc(F)cc(C#N)c2)s1` [Compound E188], the IC50 is 1.26 nM.
Turning to `COc1ccc(F)cc1Cc1cnc(NC(=O)N(C)C[C@H](C)O)s1` [Compound E143], the IC50 was 398 nM.
With `O=C(Nc1ncc(Cc2cccc(F)c2)s1)N1CCC1CO` (centres unmarked) [Compound E126], the IC50 is 631 nM.
Then `CC(C)NC(=O)c1ncc(Cc2cccc(F)c2)s1` [Compound E217, 5-[(3-fluorophenyl)methyl]-N-isopropyl-thiazole-2-carboxamide], with 2000 nM; and `CN(CC(C)(C)O)C(=O)Nc1ncc(Cc2cccc(F)c2)s1` [Compound E108], with 1.58 nM.
With `NS(=O)(=O)N1CCC[C@H]1C(=O)Nc1ncc(Cc2cccc(F)c2)s1` [Compound E062], the IC50 was 3980 nM.

Source of the values: US12502380B2, “MrgprX2 antagonists for the treatment of inflammatory disorders” (Dermira, Inc., priority 2019, dated 2025).
